{"source": "ChEMBL document CHEMBL2046272", "about": "“Ligand Promiscuity between the Efflux Pumps Human P-Glycoprotein and S. aureus NorA” (ACS Med Chem Lett, 2012)", "key": {"[1]": {"target": "T1, MDR1 (P-glycoprotein, ABCB1) (Homo sapiens, UniProt P08183)", "test": "in vitro", "description": "Inhibition of human recombinant MDR1 expressed in mouse L5178Y cells assessed as inhibition of rhodamine-123 efflux at 10^-4 M preincubated for 10 mins measured after 20 mins by FACS analysis"}, "[2]": {"target": "T1, MDR1 (P-glycoprotein, ABCB1)", "test": "Inhibition of human recombinant MDR1 expressed in mouse L5178Y cells assessed as inhibition of rhodamine-123 efflux at 10^-5 M preincubated for 10 mins measured after 20 mins by FACS analysis", "format": "cell-based", "conditions": "mouse L5178Y cells expressing human recombinant MDR1, probe rhodamine-123"}, "[3]": {"target": "T2, Quinolone resistance protein NorA (Staphylococcus aureus) (UniProt P0A0J7)", "T2 sequence (whole entry)": "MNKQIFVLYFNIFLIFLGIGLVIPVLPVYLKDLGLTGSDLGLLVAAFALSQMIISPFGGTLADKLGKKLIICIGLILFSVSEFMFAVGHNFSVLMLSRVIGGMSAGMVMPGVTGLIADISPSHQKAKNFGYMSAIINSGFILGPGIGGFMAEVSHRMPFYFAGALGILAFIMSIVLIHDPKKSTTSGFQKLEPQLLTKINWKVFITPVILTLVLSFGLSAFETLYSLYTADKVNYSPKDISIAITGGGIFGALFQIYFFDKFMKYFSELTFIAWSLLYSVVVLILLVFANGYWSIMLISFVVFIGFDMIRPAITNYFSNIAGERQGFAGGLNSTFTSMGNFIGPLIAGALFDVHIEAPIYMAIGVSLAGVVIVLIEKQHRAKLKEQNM", "conditions": "SA-1199B, at 50 µM", "description": "Inhibition of norA-mediated ethidium bromide efflux in Staphylococcus aureus SA-1199B harboring grlA A116E mutant at 50 uM after 5 mins by fluorometric analysis"}, "Staphylococcus aureus": {"tested_on": "Staphylococcus aureus", "test": "microbe, parasite or virus in culture", "format": "functional", "conditions": "SA-1199B", "description": "Antibacterial activity against Staphylococcus aureus SA-1199B harboring grlA A116E mutant by microdilution techniques"}, "[4]": {"conditions": "mouse L5178Y cells expressing human recombinant MDR1, probe rhodamine-123"}}, "data": [{"smiles": "Cn1cccc1-c1nc2cc(NC(=O)c3ccccc3)ccc2[nH]1", "values": [{"measurement": "inhibition at 20 min, 100 µM", "setting": "[1]; [4]", "value": 1.6, "unit": "%"}]}, {"smiles": "Cc1ccc(S(=O)(=O)Nc2ccc3nc(-c4cccn4C)[nH]c3c2)cc1", "values": [{"measurement": "inhibition at 20 min, 100 µM", "setting": "[1]; [4]", "value": 4.3, "unit": "%"}]}, {"smiles": "O=C1NC(=O)/C(=C/c2ccc(-c3cc(C(=O)O)ccc3Cl)o2)S1", "values": [{"measurement": "inhibition at 20 min, 100 µM", "setting": "[1]; [4]", "value": 2.6, "unit": "%"}]}, {"smiles": "C[C@@H](NCc1cccc(OCc2ccccc2)c1)[C@@H](O)c1ccccc1", "values": [{"measurement": "inhibition at 20 min, 10 µM", "setting": "[2]", "value": 7.8, "unit": "%"}]}, {"smiles": "CC[C@H]1CCc2nc(SCc3ccc(C(=O)O)cc3)c(C#N)c(C(F)(F)F)c2C1", "values": [{"measurement": "inhibition at 20 min, 10 µM", "setting": "[2]", "value": 0.6, "unit": "%"}]}, {"smiles": "CC[C@H](C)N1C(=O)S/C(=C/c2ccc(-c3cc(C(=O)O)ccc3Cl)o2)C1=O", "values": [{"measurement": "inhibition at 20 min, 10 µM", "setting": "[2]", "value": 0.7, "unit": "%"}]}, {"smiles": "Cc1ccc(S(=O)(=O)Nc2ccc3c(c2)ncn3-c2ccccc2)cc1", "values": [{"measurement": "inhibition at 20 min, 100 µM", "setting": "[1]; [4]", "value": 2.3, "unit": "%"}]}, {"smiles": "Cc1ccc(S(=O)(=O)Nc2ccc3c(c2)nc(C)n3Cc2ccccc2)cc1", "values": [{"measurement": "inhibition at 20 min, 100 µM", "setting": "[1]; [4]", "value": 21.7, "unit": "%"}]}, {"smiles": "c1ccc(CCN(Cc2ccccc2)Cc2cccc(OCc3ccccc3)c2)cc1", "values": [{"measurement": "inhibition at 20 min, 100 µM", "setting": "[1]; [4]", "value": 2.2, "unit": "%"}]}, {"smiles": "COc1cccc(CNC(C)C(O)c2ccccc2)c1", "note": "(configuration not stated)", "values": [{"measurement": "inhibition at 20 min, 100 µM", "setting": "[1]; [4]", "value": 2.1, "unit": "%"}]}, {"smiles": "N#Cc1c(C(F)(F)F)cc(Cc2ccccc2)nc1SCc1ccc(C(=O)O)cc1", "values": [{"measurement": "inhibition at 20 min, 100 µM", "setting": "[1]; [4]", "value": 2.6, "unit": "%"}]}, {"smiles": "N#Cc1c(SCc2ccc(Cl)nc2)nc2c(c1C(F)(F)F)CCCC2", "values": [{"measurement": "inhibition at 20 min, 100 µM", "setting": "[1]; [4]", "value": 20.4, "unit": "%"}]}, {"smiles": "CCC(C)N1C(=O)S/C(=C\\c2ccc(-c3cc(C(=O)O)ccc3Cl)o2)C1=O", "note": "(configuration not stated)", "values": [{"measurement": "inhibition at 20 min, 10 µM", "setting": "[2]", "value": 1.7, "unit": "%"}]}, {"smiles": "CCC(C)N1C(=O)S/C(=C\\c2ccc(N3CCCC3)o2)C1=O", "note": "(configuration not stated)", "values": [{"measurement": "inhibition at 20 min, 100 µM", "setting": "[1]; [4]", "value": 11.3, "unit": "%"}]}, {"smiles": "CCCOc1ccc(-c2cc(=O)c3ccccc3n2C)cc1", "values": [{"measurement": "inhibition at 20 min, 100 µM", "setting": "[1]; [4]", "value": 1.9, "unit": "%"}]}, {"smiles": "CCN(CC)CCOc1ccc(-c2cc(=O)c3ccccc3n2C)cc1", "values": [{"measurement": "inhibition at 20 min, 10 µM", "setting": "[2]", "value": 2.6, "unit": "%"}]}, {"smiles": "CN(C)CCOc1ccc(-c2cc(=O)c3ccccc3n2C)cc1", "values": [{"measurement": "inhibition at 20 min, 100 µM", "setting": "[1]; [4]", "value": 3.2, "unit": "%"}]}, {"smiles": "CCOC(=O)c1cn(C2CC2)c2cc(N3CCC4=C(C3)/C(=N/O)C(C)CS4)c(N)cc2c1=O", "note": "(configuration not stated)", "values": [{"measurement": "inhibition at 20 min, 100 µM", "setting": "[1]; [4]", "value": 40.6, "unit": "%"}]}, {"smiles": "CCOC(=O)c1cn(C2CC2)c2cc(N3CCC4=C(C3)/C(=N/OC)C(C)CS4)c(N)cc2c1=O", "note": "(configuration not stated)", "values": [{"measurement": "inhibition at 20 min, 100 µM", "setting": "[1]; [4]", "value": 16.8, "unit": "%"}]}, {"smiles": "COc1ccc(C2=Nc3ccccc3SC2)cc1OC", "values": [{"measurement": "inhibition at 20 min, 100 µM", "setting": "[1]; [4]", "value": 44.1, "unit": "%"}]}, {"smiles": "COc1cc(C2=Nc3ccccc3SC2)cc(OC)c1OC", "values": [{"measurement": "inhibition at 20 min, 100 µM", "setting": "[1]; [4]", "value": 64.7, "unit": "%"}]}, {"smiles": "C=C[C@H]1CN2CC[C@H]1C[C@@H]2[C@@H](O)c1ccnc2ccc(OC)cc12", "values": [{"measurement": "inhibition", "setting": "[3]", "value": 31.5, "unit": "%"}]}, {"smiles": "C=CCc1ccccc1OCC(O)CNC(C)C", "note": "(configuration not stated) [ALPRENOLOL]", "values": [{"measurement": "inhibition at 20 min, 100 µM", "setting": "[1]; [4]", "value": 5, "unit": "%"}]}, {"smiles": "CCOC(=O)C1=C(COCCN)NC(C)=C(C(=O)OC)C1c1ccccc1Cl", "note": "(configuration not stated) [AMLODIPINE]", "values": [{"measurement": "inhibition at 20 min, 10 µM", "setting": "[2]", "value": 52.8, "unit": "%"}, {"measurement": "inhibition", "setting": "[3]", "value": 60.6, "unit": "%"}]}, {"smiles": "CCN(CC)CCCN(c1ccccc1)C1Cc2ccccc2C1", "note": "[APRINDINE]", "values": [{"measurement": "inhibition", "setting": "[3]", "value": 51.6, "unit": "%"}, {"measurement": "inhibition at 20 min, 100 µM", "setting": "[1]; [4]", "value": 16, "unit": "%"}]}, {"smiles": "O=C1CCc2ccc(OCCCCN3CCN(c4cccc(Cl)c4Cl)CC3)cc2N1", "note": "[ARIPIPRAZOLE]", "values": [{"measurement": "MIC", "setting": "Staphylococcus aureus", "value": "> 100", "unit": "µg/mL"}, {"measurement": "inhibition", "setting": "[3]", "value": 92.3, "unit": "%"}, {"measurement": "inhibition at 20 min, 100 µM", "setting": "[1]; [4]", "value": 99, "unit": "%"}]}, {"smiles": "COc1ccc(CCN2CCC(Nc3nc4ccccc4n3Cc3ccc(F)cc3)CC2)cc1", "note": "[ASTEMIZOLE]", "values": [{"measurement": "inhibition at 20 min, 10 µM", "setting": "[2]", "value": 12.8, "unit": "%"}, {"measurement": "MIC", "setting": "Staphylococcus aureus", "value": 100, "unit": "µg/mL"}, {"measurement": "inhibition", "setting": "[3]", "value": 80.6, "unit": "%"}]}, {"smiles": "CC(C)(C)c1ccc(C(=O)CCCN2CCC(OC(c3ccccc3)c3ccccc3)CC2)cc1", "note": "[EBASTINE]", "values": [{"measurement": "MIC", "setting": "Staphylococcus aureus", "value": "> 100", "unit": "µg/mL"}, {"measurement": "inhibition", "setting": "[3]", "value": 88.3, "unit": "%"}]}, {"smiles": "CN(C)C(=O)C(CCN1CCC(O)(c2ccc(Cl)cc2)CC1)(c1ccccc1)c1ccccc1", "note": "[LOPERAMIDE]", "values": [{"measurement": "inhibition at 20 min, 10 µM", "setting": "[2]", "value": 4.5, "unit": "%"}, {"measurement": "MIC", "setting": "Staphylococcus aureus", "value": "> 100", "unit": "µg/mL"}, {"measurement": "inhibition", "setting": "[3]", "value": 77.7, "unit": "%"}]}, {"smiles": "C=C[C@H]1C[N@@]2CC[C@H]1C[C@@H]2[C@@H](O)c1ccnc2ccc(OC)cc12", "note": "[QUINIDINE]", "values": [{"measurement": "inhibition at 20 min, 100 µM", "setting": "[1]; l5178y", "value": 21.1, "unit": "%"}]}, {"smiles": "CCOc1cc(CC(=O)N[C@@H](CC(C)C)c2ccccc2N2CCCCC2)ccc1C(=O)O", "note": "[REPAGLINIDE]", "values": [{"measurement": "inhibition", "setting": "[3]", "value": 14, "unit": "%"}, {"measurement": "inhibition at 20 min, 100 µM", "setting": "[1]; [4]", "value": 35, "unit": "%"}]}, {"smiles": "O=C1NCCN1CCN1CCC(c2cn(-c3ccc(F)cc3)c3ccc(Cl)cc23)CC1", "note": "[SERTINDOLE]", "values": [{"measurement": "MIC", "setting": "Staphylococcus aureus", "value": 25, "unit": "µg/mL"}, {"measurement": "inhibition", "setting": "[3]", "value": 81.8, "unit": "%"}, {"measurement": "inhibition at 20 min, 100 µM", "setting": "[1]; [4]", "value": 74, "unit": "%"}]}, {"smiles": "O=C1Cc2cc(CCN3CCN(c4nsc5ccccc45)CC3)c(Cl)cc2N1", "note": "[ZIPRASIDONE]", "values": [{"measurement": "MIC", "setting": "Staphylococcus aureus", "value": "> 100", "unit": "µg/mL"}, {"measurement": "inhibition", "setting": "[3]", "value": 86.6, "unit": "%"}, {"measurement": "inhibition at 20 min, 100 µM", "setting": "[1]; [4]", "value": 19, "unit": "%"}]}]}
